The target of this assay is T1, soluble guanylate cyclase (GUCYA3/GUCYB3) overexpressed in CHO cells (Homo sapiens, UniProt Q02108+Q02153).
T1 construct: expressed in transfected cells
T1 sequence (Q02108 1-690 partner): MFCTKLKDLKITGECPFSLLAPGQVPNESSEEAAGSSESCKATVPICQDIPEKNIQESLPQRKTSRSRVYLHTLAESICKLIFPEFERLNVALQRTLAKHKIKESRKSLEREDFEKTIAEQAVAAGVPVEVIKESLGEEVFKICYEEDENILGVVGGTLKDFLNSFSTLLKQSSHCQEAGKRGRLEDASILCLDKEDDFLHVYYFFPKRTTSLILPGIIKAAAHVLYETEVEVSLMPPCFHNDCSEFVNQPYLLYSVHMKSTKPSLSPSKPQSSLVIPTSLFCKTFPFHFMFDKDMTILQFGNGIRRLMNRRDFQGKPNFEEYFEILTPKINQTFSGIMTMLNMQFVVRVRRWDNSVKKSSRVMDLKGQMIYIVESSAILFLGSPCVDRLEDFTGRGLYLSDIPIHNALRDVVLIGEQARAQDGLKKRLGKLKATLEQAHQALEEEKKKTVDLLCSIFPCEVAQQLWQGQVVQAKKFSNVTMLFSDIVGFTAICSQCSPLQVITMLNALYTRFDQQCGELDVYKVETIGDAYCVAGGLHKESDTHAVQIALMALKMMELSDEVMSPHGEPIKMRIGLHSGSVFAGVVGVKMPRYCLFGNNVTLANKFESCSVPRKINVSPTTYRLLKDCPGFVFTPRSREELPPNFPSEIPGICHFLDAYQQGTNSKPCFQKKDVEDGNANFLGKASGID
T1 sequence (Q02153 1-619): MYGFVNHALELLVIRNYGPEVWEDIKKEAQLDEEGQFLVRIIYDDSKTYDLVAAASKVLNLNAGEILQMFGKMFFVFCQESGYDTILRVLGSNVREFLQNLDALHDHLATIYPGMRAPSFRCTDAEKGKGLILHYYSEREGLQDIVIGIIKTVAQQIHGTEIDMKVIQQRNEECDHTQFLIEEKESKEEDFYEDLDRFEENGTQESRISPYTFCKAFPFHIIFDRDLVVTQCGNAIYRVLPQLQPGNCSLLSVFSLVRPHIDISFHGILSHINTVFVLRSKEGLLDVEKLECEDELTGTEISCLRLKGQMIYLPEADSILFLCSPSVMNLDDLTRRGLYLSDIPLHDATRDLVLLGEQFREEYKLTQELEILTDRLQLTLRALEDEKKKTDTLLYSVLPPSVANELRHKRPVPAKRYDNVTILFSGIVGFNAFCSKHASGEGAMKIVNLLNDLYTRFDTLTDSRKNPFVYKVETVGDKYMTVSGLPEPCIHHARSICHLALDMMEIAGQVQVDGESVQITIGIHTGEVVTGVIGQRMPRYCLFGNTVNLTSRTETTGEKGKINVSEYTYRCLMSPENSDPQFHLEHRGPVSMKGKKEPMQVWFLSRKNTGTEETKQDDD
The assay can be described thus: CHO cellular assay (cGMP production, HTRF). The format is cell-based. As to conditions: CHO GUCY clone 8E10; assay buffer with 1 mM IBMX, 20 uM ODQ; 1 h at room temperature; cGMP HTRF; quantification limit 0.0005 μM; read-out: Mean EC50. From the text:
Chinese hamster ovary (CHO) cells overexpressing soluble guanylate cyclase were generated to test the effect of sGC activators in a cellular context. Human cDNAs for GUCYA3 (RefSeq: NM_000856.3) and GUCYB3 (RefSeq: NM_000857.1) were amplified by PCR from a HUVEC (Human Umbilical Vein Endothelial Cells) cDNA library and cloned into mammalian expression vectors. CHO K1 cells (ATCC CCL-61) were transfected using Lipofectamine 2000 following manufacturer's instructions and stably expressing clones were identified by antibiotic selection. CHO GUCY clone 8E10 was used for subsequent experiments.
Cells were seeded at a density of 3000 cells/well in white 384-well proxyplates (Perkin Elmer) and incubated overnight, then the medium was removed and cells were washed with assay buffer (HBSS, 0.1% BSA, 1 mM IBMX, 20 uM ODQ). sGC activators were serially diluted in DMSO, then diluted in assay buffer prior to adding to cells (10 ul/well, final DMSO concentration 0.5%). Cells were incubated with compounds for 1 h at room temperature, then assayed for cGMP production using Cisbio cGMP HTRF kit (62GM2PEC) according to manufacturer's instructions.
The EC50s are calculated based on the amount of cGMP interpolated from the standard curve, using a 4-parameter sigmoidal dose-response.
Compounds of invention are active on sGC activation. Data in Table 1 collected using the assay of Biological Example 1.
A general note: In TR-FRET formats the signal depends on donor and acceptor labels being close together.

Molecules are shown by their SMILES. pEC50: −log10 of the molar value.

On to `CCc1nc(NC2CCc3cccc(-c4cccc(-n5ncc(C(=O)O)c5OC)c4)c32)ccc1C1=CCN(C(=O)C2CC2)CC1` (single isomer, unassigned; (+)) [Example 10A, (+)-1-(3-(3-((1′-(Cyclopropanecarbonyl)-2-ethyl-1′,2′,3′,6′-tetrahydro-[3,4′-bipyridin]-6-yl)amino)-2,3-dihydro-1H-inden-4-yl)phenyl)-5-methoxy-1H-pyrazole-4-carboxylic acid], for which the pEC50 (as a rule, the negative decadic logarithm of the EC50, by convention in mol/L) was > 9.30.

As for `CCc1cc(NC2CCc3cccc(-c4cccc(-n5ncc(C(=O)O)c5NC)c4)c32)ccc1C1CCN(C(=O)C2CC2)CC1` (single isomer, unassigned; enantiomer-1) [Example 12A, (enantiomer-1)-1-(3-(3-((4-(1-(Cyclopropanecarbonyl)piperidin-4-yl)-3-ethylphenyl)amino)-2,3-dihydro-1H-inden-4-yl)phenyl)-5-(methylamino)-1H-pyrazole-4-carboxylic acid], the pEC50 was 7.28.

With `CCc1nc(NC2CCc3cccc(-c4cccc(-n5ncc(C(=O)O)c5OC)n4)c32)ccc1C1=CCN(C(=O)C2CC2)CC1` (single isomer, unassigned; (+)) [Example 16A, (+)-1-(6-(3-((1′-(Cyclopropanecarbonyl)-2-ethyl-1′,2′,3′,6′-tetrahydro-[3,4′-bipyridin]-6-yl)amino)-2,3-dihydro-1H-inden-4-yl)pyridin-2-yl)-5-methoxy-1H-pyrazole-4-carboxylic acid], the pEC50 was > 9.30.

`CCc1nc(NC2CCc3cccc(-c4cccc(-n5ncc(C(=O)O)c5OC)c4)c32)ccc1C1=CCN(C(=O)[C@H](C)O)CC1` (single isomer, unassigned) [Example 11A, 1-(3-((S or R)-3-((2-Ethyl-1′-((S)-2-hydroxypropanoyl)-1′,2′,3′,6′-tetrahydro-[3,4′-bipyridin]-6-yl)amino)-2,3-dihydro-1H-inden-4-yl)phenyl)-5-methoxy-1H-pyrazole-4-carboxylic acid]: the negative logarithm of the EC50 (pEC50) was 7.44.

Turning to `CCc1cc(C[C@@H]2CCc3cccc(-c4cccc(-n5ncc(C(=O)O)c5OC)c4)c32)ccc1C1CCN(C(=O)C2CC2)CC1` [Example 1B, (−)-(S)-1-(3-(3-(4-(1-(Cyclopropanecarbonyl)piperidin-4-yl)-3-ethylbenzyl)-2,3-dihydro-1H-inden-4-yl)phenyl)-5-methoxy-1H-pyrazole-4-carboxylic acid], the negative-log EC50 (pEC50) is 7.80.

Consider `CCc1nc(NC2CCc3cccc(-c4cccc(-n5ncc(C(=O)O)c5OC)c4)c32)ccc1C1=CCN(C(=O)C2CC2)CC1` (single isomer, unassigned; (-)) [Example 10B, (−)-1-(3-(3-((1′-(Cyclopropanecarbonyl)-2-ethyl-1′,2′,3′,6′-tetrahydro-[3,4′-bipyridin]-6-yl)amino)-2,3-dihydro-1H-inden-4-yl)phenyl)-5-methoxy-1H-pyrazole-4-carboxylic acid], for which the pEC50 is 6.83.

Regarding `CCc1cc(C[C@H]2CCc3cccc(-c4cccc(-n5ncc(C(=O)O)c5NC)c4)c32)ccc1C1CCN(C(=O)C2CC2)CC1` [Example 21, (R)-1-(3-(3-(4-(1-(cyclopropanecarbonyl)piperidin-4-yl)-3-ethylbenzyl)-2,3-dihydro-1H-inden-4-yl)phenyl)-5-(methylamino)-1H-pyrazole-4-carboxylic acid], the pEC50 was > 9.30.

As for `CCc1cc(C[C@H]2CCc3cccc(-c4cccc(-n5ncc(C(=O)O)c5OC)n4)c32)ccc1C1CCN(C(=O)C2CC2)CC1` [Example 13, (+)-(R)-1-(6-(3-(4-(1-(Cyclopropanecarbonyl)piperidin-4-yl)-3-ethylbenzyl)-2,3-dihydro-1H-inden-4-yl)pyridin-2-yl)-5-methoxy-1H-pyrazole-4-carboxylic acid], the negative-log EC50 (pEC50) was > 9.30.

In the case of `CCc1nc(NC2CCc3cccc(-c4cccc(-n5ncc(C(=O)O)c5NC)c4)c32)ccc1C1=CCN(C(=O)C2CC2)CC1` (single isomer, unassigned; (+)) [Example 22A, (+)-1-(3-(3-((1′-(Cyclopropanecarbonyl)-2-ethyl-1′,2′,3′,6′-tetrahydro-[3,4′-bipyridin]-6-yl)amino)-2,3-dihydro-1H-inden-4-yl)phenyl)-5-(methylamino)-1H-pyrazole-4-carboxylic acid], the pEC50 is > 9.30.

As for `CCc1cc(O[C@H]2CCc3cccc(-c4cccc(-n5ncc(C(=O)O)c5OC)n4)c32)ccc1C1CCN(C(=O)C2CC2)CC1` [Example 14, (S)-1-(6-(3-(4-(1-(Cyclopropanecarbonyl)piperidin-4-yl)-3-ethylphenoxy)-2,3-dihydro-1H-inden-4-yl)pyridin-2-yl)-5-methoxy-1H-pyrazole-4-carboxylic acid], the pEC50 was > 9.30.

For `CCc1cc(NC2CCc3cccc(-c4ccc(OC)c(-n5ncc(C(=O)O)c5OC)c4)c32)ccc1C1CCN(C(=O)C2CC2)CC1` (single isomer, unassigned; (+)) [Example 8A, (+)-1-(5-(3-((4-(1-(Cyclopropanecarbonyl)piperidin-4-yl)-3-ethylphenyl)amino)-2,3-dihydro-1H-inden-4-yl)-2-methoxyphenyl)-5-methoxy-1H-pyrazole-4-carboxylic acid], the pEC50 was > 9.30.

In the case of `CCc1cc(NC2CCc3cccc(-c4ccc(C)c(-n5ncc(C(=O)O)c5OC)c4)c32)ccc1C1CCN(C(=O)C2CC2)CC1` (single isomer, unassigned; (+)) [Example 7A, (+)-1-(5-(3-((4-(1-(Cyclopropanecarbonyl)piperidin-4-yl)-3-ethylphenyl)amino)-2,3-dihydro-1H-inden-4-yl)-2-methylphenyl)-5-methoxy-1H-pyrazole-4-carboxylic acid], the pEC50 is > 9.30.

As for `CCc1cc(NC2CCc3cccc(-c4ccc(C)c(-n5ncc(C(=O)O)c5OC)c4)c32)ccc1C1CCN(C(=O)C2CC2)CC1` (single isomer, unassigned; (-)) [Example 7B, (−)-1-(5-(3-((4-(1-(Cyclopropanecarbonyl)piperidin-4-yl)-3-ethylphenyl)amino)-2,3-dihydro-1H-inden-4-yl)-2-methylphenyl)-5-methoxy-1H-pyrazole-4-carboxylic acid], the pEC50 is 8.70.

In the case of `CCc1cc(C[C@H]2CCc3cccc(-c4cccc(-n5ncc(C(=O)O)c5OC)n4)c32)ccc1C1CCN(C(=O)[C@H](C)O)CC1` [Example 24, (+)-(R)-1-(6-(3-(3-Ethyl-4-(1-((S)-2-hydroxypropanoyl)piperidin-4-yl)benzyl)-2,3-dihydro-1H-inden-4-yl)pyridin-2-yl)-5-methoxy-1H-pyrazole-4-carboxylic acid], the negative logarithm of the EC50 (pEC50) was > 9.30.

Take `CCc1cc(O[C@H]2CCc3cccc(-c4cccc(-n5ncc(C(=O)O)c5N)n4)c32)ccc1C1CCN(C(=O)C2CC2)CC1` [Example 19, (S)-5-Amino-1-(6-(3-(4-(1-(cyclopropanecarbonyl)piperidin-4-yl)-3-ethylphenoxy)-2,3-dihydro-1H-inden-4-yl)pyridin-2-yl)-1H-pyrazole-4-carboxylic acid]: the pEC50 was 8.52.
